Assay results as given in BindingDB's records for doi:10.1016/s0960-894x(02)00061-6 (Lek, 2002).

Target: Beta-lactamase TEM (Escherichia coli, UniProt P62593)
Assay: ChEBML_47839
Method: The compound was tested for its inhibitory activity towards Class A TEM-1 beta-lactamase from Escherichia coli at 0.3 umol

Chain of Beta-lactamase TEM (P62593 whole entry): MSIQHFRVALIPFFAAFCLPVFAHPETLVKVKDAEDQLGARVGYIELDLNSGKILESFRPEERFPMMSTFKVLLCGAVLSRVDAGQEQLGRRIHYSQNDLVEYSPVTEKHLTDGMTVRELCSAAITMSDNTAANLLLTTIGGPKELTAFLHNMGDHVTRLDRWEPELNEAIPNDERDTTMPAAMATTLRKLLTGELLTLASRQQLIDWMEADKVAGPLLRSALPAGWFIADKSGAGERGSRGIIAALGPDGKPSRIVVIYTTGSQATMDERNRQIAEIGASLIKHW

C/C=C1/C(=O)N2C(C(=O)O)=C3CCCCC3[C@H]12 (stereo partly drawn) [Sodium; (R)-1-eth-(E)-ylidene-2-oxo-1,2,5,6,7,8,8a,8b-octahydro-azeto[2,1-a]isoindole-4-carboxylate]
IC50: 120 µM
